US8492374B2, “Azaazulene compounds” (Industrial Technology Research Institute, priority 2009, dated 2013)

Experiments:
Test in all cases: Kinase panel assay (SelectScreen Kinase Profiling, Invitrogen)
Format in all cases: biochemical
Settings in all cases: 1000 nM of compound B26
STK4 (MST1) = STK4 (MST1) (Homo sapiens, UniProt Q13043)
Description: (§1) The kinase panel assay of compound B26 of this invention was performed by SelectScreen® Kinase Profiling Services of Invitrogen. The inhibitory effects of 1000 nM of compound B26 against various kinases whom shown >50% inhibitory effects are summarized in following Table 5.

LYN A = LYN A (Homo sapiens, UniProt P07948)
Description: as §1

FGFR1 = FGFR1 (Homo sapiens, UniProt P11362)
Description: as §1

YES1 = YES1 (Homo sapiens, UniProt P07947)
Description: as §1

CSF1R (FMS) = CSF1R (FMS) (Homo sapiens, UniProt P07333)
Chain of CSF1R (FMS) (P07333 20-972): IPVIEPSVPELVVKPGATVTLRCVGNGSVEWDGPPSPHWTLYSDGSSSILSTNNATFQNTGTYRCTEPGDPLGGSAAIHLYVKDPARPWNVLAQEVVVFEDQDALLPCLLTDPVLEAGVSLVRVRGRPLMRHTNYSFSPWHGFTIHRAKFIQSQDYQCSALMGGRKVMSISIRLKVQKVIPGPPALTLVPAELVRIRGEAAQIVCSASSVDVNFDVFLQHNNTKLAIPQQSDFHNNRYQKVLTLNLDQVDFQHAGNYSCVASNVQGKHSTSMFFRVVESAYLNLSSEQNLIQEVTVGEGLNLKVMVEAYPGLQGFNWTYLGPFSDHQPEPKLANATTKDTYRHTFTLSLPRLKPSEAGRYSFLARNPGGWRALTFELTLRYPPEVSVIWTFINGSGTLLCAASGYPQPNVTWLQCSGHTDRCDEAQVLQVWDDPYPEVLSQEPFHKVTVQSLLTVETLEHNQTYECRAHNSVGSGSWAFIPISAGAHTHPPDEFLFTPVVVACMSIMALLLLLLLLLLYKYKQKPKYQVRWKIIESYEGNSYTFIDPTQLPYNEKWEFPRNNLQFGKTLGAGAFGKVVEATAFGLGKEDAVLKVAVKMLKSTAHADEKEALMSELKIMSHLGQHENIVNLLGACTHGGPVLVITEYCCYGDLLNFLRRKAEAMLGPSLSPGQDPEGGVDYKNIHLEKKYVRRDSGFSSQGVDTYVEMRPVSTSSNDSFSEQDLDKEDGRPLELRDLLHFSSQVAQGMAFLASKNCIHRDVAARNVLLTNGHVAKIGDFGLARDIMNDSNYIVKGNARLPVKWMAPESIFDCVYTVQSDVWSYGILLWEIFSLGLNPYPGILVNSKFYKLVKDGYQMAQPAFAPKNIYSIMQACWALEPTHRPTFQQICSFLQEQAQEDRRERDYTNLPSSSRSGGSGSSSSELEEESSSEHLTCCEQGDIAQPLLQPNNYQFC
Description: as §1

BLK = BLK (Homo sapiens, UniProt P51451)
Chain of BLK (P51451 whole entry): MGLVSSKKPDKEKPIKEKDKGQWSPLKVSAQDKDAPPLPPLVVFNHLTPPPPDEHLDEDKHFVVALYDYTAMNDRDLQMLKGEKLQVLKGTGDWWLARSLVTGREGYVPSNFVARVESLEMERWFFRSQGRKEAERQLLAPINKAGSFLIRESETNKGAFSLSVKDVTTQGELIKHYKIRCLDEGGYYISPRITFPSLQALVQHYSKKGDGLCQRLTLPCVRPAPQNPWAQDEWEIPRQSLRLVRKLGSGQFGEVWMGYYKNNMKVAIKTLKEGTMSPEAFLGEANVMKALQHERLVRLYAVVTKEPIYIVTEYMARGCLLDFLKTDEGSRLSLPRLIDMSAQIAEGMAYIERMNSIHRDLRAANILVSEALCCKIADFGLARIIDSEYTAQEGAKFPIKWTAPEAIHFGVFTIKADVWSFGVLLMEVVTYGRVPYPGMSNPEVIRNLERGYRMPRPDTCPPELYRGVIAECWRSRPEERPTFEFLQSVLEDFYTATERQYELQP
Description: as §1

NTRK1 (TRKA) = NTRK1 (TRKA) (Homo sapiens, UniProt P04629)
Description: as §1

AMPK A2/B1/G1 = AMPK A2/B1/G1 (Homo sapiens, UniProt P54646)
Chain of AMPK A2/B1/G1 (P54646 whole entry): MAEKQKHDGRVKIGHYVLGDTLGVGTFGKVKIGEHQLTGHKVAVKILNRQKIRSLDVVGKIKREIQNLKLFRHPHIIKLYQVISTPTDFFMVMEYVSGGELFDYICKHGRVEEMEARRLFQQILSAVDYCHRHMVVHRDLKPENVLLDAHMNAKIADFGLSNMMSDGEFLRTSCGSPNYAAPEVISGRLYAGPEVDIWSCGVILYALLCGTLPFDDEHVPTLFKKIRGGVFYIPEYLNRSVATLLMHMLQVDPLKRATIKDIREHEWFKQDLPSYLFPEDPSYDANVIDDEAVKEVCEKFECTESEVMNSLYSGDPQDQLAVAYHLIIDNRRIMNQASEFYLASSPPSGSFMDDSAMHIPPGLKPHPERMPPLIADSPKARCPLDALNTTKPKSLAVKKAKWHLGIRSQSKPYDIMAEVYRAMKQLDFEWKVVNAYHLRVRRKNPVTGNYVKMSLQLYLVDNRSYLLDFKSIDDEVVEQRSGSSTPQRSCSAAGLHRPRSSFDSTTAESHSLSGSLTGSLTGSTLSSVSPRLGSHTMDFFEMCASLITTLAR
Chain of AMPK A2/B1/G1 (Q9Y478 whole entry partner): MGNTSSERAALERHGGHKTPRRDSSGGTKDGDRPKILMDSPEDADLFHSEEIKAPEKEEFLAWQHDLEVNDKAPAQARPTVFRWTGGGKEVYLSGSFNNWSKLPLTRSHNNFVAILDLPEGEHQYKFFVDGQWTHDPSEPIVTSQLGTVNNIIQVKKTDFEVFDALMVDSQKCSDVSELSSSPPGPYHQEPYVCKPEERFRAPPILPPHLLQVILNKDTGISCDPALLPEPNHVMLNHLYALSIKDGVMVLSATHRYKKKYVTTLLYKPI
Chain of AMPK A2/B1/G1 (P54619 whole entry partner): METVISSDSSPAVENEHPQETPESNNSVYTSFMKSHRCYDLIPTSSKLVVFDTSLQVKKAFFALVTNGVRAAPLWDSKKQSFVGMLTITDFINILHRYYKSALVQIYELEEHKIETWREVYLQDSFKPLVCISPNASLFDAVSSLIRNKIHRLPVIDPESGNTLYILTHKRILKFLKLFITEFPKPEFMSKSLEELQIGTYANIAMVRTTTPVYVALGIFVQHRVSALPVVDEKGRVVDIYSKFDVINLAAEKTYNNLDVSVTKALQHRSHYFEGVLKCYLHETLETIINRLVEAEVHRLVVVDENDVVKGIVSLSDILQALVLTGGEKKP
Description: as §1

RET V804L = RET V804L (Homo sapiens, UniProt P07949, V804L)
Chain of RET V804L (P07949 29-1114 V804L): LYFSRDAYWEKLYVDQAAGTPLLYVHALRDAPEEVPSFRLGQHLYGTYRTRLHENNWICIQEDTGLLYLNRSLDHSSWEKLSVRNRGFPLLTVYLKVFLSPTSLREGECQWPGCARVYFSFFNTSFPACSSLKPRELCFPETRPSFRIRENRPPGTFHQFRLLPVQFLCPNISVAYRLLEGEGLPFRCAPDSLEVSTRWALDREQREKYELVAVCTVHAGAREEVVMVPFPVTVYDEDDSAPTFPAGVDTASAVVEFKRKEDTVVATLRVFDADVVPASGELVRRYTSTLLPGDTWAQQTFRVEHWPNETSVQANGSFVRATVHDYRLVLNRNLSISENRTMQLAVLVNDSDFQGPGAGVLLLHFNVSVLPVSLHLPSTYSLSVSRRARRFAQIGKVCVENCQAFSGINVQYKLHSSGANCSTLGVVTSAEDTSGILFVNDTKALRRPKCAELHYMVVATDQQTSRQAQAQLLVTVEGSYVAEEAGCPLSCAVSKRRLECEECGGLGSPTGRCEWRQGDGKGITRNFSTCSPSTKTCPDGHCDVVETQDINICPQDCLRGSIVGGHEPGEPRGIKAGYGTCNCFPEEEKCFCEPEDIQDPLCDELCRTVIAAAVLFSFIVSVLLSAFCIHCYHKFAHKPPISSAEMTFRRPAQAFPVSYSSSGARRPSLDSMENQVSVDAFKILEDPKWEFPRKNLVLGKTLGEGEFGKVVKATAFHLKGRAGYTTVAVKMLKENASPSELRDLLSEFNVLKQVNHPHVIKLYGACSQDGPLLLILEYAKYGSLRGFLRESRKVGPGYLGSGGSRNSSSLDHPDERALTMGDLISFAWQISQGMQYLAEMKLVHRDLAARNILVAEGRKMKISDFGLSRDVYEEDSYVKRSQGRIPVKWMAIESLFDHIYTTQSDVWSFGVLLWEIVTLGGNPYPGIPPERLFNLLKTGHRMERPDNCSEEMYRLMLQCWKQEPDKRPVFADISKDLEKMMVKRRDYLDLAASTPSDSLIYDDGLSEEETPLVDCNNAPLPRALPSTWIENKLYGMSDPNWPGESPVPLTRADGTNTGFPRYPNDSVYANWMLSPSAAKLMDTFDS
Description: as §1

FGR = FGR (Homo sapiens, UniProt P09769)
Description: as §1

NTRK3 (TRKC) = NTRK3 (TRKC) (Homo sapiens, UniProt Q16288)
Description: as §1

FGFR3 K650E = FGFR3 K650E (Homo sapiens, UniProt P22607, K650E)
Description: as §1

FLT3 = FLT3 (Homo sapiens, UniProt P36888)
Description: as §1

RET Y791F = RET Y791F (Homo sapiens, UniProt P07949, Y791F)
Chain of RET Y791F (P07949 29-1114 Y791F): as the sequence (P07949 29-1114 V804L) above, with Y763F, L776V counted along it
Description: as §1

KDR (VEGFR2) = KDR (VEGFR2) (Homo sapiens, UniProt P35968)
Description: as §1

SRC = SRC (Homo sapiens, UniProt P12931)
Chain of SRC (P12931 whole entry): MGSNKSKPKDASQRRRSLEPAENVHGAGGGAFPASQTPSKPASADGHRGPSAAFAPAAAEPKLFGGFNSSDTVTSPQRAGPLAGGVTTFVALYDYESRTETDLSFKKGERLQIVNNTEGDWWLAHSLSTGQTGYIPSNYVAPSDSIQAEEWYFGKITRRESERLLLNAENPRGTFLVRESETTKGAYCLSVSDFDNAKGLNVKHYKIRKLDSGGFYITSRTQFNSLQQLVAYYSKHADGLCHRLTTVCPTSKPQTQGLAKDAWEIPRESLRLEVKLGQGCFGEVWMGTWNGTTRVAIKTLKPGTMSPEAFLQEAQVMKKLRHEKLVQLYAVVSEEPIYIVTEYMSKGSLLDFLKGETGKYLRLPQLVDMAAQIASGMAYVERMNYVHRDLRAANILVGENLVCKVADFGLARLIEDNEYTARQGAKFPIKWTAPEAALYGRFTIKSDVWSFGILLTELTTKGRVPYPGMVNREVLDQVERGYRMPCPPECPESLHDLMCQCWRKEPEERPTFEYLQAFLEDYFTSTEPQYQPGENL
Description: as §1

RET = RET (Homo sapiens, UniProt P07949)
Chain of RET (P07949 29-1114): as the sequence (P07949 29-1114 V804L) above, with L776V counted along it
Description: as §1

Chain of STK4 (MST1) (Q13043 whole entry): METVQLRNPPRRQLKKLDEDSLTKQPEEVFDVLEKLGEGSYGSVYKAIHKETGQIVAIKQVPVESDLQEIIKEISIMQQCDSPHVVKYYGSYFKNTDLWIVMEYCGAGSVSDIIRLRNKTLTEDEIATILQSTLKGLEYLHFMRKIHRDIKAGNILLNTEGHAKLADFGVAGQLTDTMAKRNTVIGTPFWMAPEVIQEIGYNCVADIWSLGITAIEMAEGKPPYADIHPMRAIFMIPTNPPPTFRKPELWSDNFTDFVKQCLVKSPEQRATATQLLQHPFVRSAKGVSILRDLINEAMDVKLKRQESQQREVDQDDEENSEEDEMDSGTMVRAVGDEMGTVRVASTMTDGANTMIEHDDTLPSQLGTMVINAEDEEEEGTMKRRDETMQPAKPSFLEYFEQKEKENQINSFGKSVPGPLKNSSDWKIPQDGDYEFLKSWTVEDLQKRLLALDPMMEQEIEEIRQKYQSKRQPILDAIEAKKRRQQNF

- inhibition at 1 µM (STK4 (MST1)): 59%
- inhibition at 1 µM (LYN A): 57%
- inhibition at 1 µM (FGFR1): 54%
- inhibition at 1 µM (YES1): 73%
- inhibition at 1 µM (CSF1R (FMS)): 60%
- inhibition at 1 µM (BLK): 52%
- inhibition at 1 µM (NTRK1 (TRKA)): 89%
- inhibition at 1 µM (AMPK A2/B1/G1): 70%
- inhibition at 1 µM (RET V804L): 79%
- inhibition at 1 µM (FGR): 69%
- inhibition at 1 µM (NTRK3 (TRKC)): 76%
- inhibition at 1 µM (FGFR3 K650E): 47%
- inhibition at 1 µM (FLT3): 95%
- inhibition at 1 µM (RET Y791F): 79%
- inhibition at 1 µM (KDR (VEGFR2)): 64%
- inhibition at 1 µM (SRC): 50%
- inhibition at 1 µM (RET): 81%
Structure (SMILES): CN1CCN(c2ccc3[nH]c(-c4c5cccccc-5[nH]c4=O)nc3c2)CC1 [Compound B26]
